≈ marks a conversion by molar mass, not a printed value. Where two headings read alike, the source gives them in different places.
Columns and labels:
Rhizoctonia solani (Rs) = assay: Growth inhibition assay of fungal pathogens, Rs; assay type: cell-based; conditions: 48 h
Protocol: Compounds of the present invention were evaluated in a growth inhibition assay to determine the ability to control the growth of fungal pathogens, such as Botrtyis cinerea (Bc), Collectotrichum graminicola (Cg), Diplodia maydis (Dm), Fusarium moniliforme (Fm), Fusarium virguliforme (Fv), Phytophthora capsici (Pc), Rhizoctonia solani (Rs), and Septoria tritici (St).
Compounds to be tested were dissolved in DMSO at 2.5 mg/ml to produce compound stock solutions (“stocks”). Stocks were diluted with DMSO by a five-fold dilution in a 96-well stock plate, and two sets of final concentrations of 50, 10, and 2 ppm or 2, 0.4, and 0.08 ppm were obtained in vitro. A set of positive controls was also prepared, with various concentrations of Soraphen (2, 0.4, and 0.08 ppm), Metalaxyl (1.1, 0.22, and 0.04 ppm), and Metconazole (2, 0.4, and 0.08 ppm or 0.2, 0.04, and 0.008 ppm) after the five-fold dilutions. Negative controls on each plate included 2% DMSO, water, and a blank (media+2% DMSO).
Fungal spores were isolated from previously sub-cultured plates of Botrtyis cinerea (Bc), Collectotrichum graminicola (Cg), Diplodia maydis (Dm), Fusarium moniliforme (Fm), Fusarium virguliforme (Fv), Phytophthora capsici (Pc), and Septoria tritici (St). The isolated spores were diluted to individual concentrations with a 17% V8 liquid media. For Rhizoctonia solani (Rs) and Pythium irregulare, 1.5 mm mycelial plugs were used in place of spores and/4 Potato Dextrose Broth (PDB) was used for dilution. The spore concentrations and plug sizes were based on growth curves generated at 48 hours for each pathogen.
In a second 96-well plate, the spores or mycelial plugs, media, diluted compound solutions, and controls were combined. Once the compound was added, a true final concentration of compound in each well was measured by an OD600 reading, which adjusted for any compound precipitation that might have occurred in the well. Plate readings were repeated at both 24 and 48 hours. The blank negative control was used as a background subtraction. Additional visual ratings were performed at both 24 and 48 hours for checking on precipitation and confirming efficacy. Visual and OD600 ratings of the compounds at 48 hours were compared to the 2% DMSO negative control, and the percent of pathogen growth inhibition was determined based on those values.

human (hACC2) = human (hACC2) (Homo sapiens, UniProt O00763); assay: In vitro ACC inhibition assay (ADP-Glo), hACC2; assay type: biochemical; conditions: 5 nM ACC2, 20 μM ATP, 20 μM acetyl-CoA
Protocol: The detailed procedure is as follows. […] 10 μL ADP glo reagent was added. […] 20 μL kinase detection reagent was added.

C. albicans = assay: Antifungal Activity Assay (broth microtiter MIC), C. albicans; assay type: cell-based, Candida albicans; conditions: Candida albicans, ATCC90028, 48 h, Table 3b (additional results); ATCC 90028; 3 replicates; MIC recorded at 48 h; read-out: MIC, C. albicans ATCC 90028
In short: (§1)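 CLSI M27-A3 microdilution; RPMI 1640+MOPS; 2.5×10^3 CFU/mL final inoculum; cultures from Sabouraud dextrose agar, 35° C overnight; compound working solution 128 μg/mL from 1 mg/mL DMSO stock; visual MIC at 48 h vs growth control.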

C. parapsilosis = assay: Antifungal Activity Assay (broth microtiter MIC), C. parapsilosis; assay type: cell-based, Candida parapsilosis; conditions: Lodderomyces parapsilosis, ATCC22019, 48 h, Table 3b (additional results); ATCC 22019; 3 replicates; MIC recorded at 48 h; read-out: MIC, C. parapsilosis ATCC 22019
In short: as §1

fungal (fACC2) = fungal (fACC2) (UniProt Q00955); conditions: read-out: fACC2 (in vitro ACC2 Inhibition Assay, IC50); Table 2b, additional results; ADP-Glo, 5 nM ACC2, 20 μM ATP, 20 μM acetyl-CoA
C. krusei = assay: Antifungal Activity Assay (broth microtiter MIC), C. krusei; assay type: cell-based, Candida krusei; conditions: Pichia kudriavzevii, ATCC6258, 48 h, Table 3b (additional results); ATCC 6258; 3 replicates; MIC recorded at 48 h; read-out: MIC, C. krusei ATCC 6258
In short: as §1

[1] = read-out: Concentration at 90% Inhibition Rs, Rhizoctonia solani, mycelial plugs, growth inhibition at 48 hours vs 2% DMSO control
[2] = read-out: Concentration at 90% Inhibition Rs, Rhizoctonia solani, mycelial plugs, growth inhibition vs 2% DMSO control at 48 hours
[3] = mycelial plugs, growth inhibition at 48 hours vs 2% DMSO control, read-out: Concentration at 90% Inhibition Rs
[4] = mycelial plugs, growth inhibition vs 2% DMSO control at 48 hours, read-out: Concentration at 90% Inhibition Rs

Sequence of human (hACC2) (O00763 whole entry): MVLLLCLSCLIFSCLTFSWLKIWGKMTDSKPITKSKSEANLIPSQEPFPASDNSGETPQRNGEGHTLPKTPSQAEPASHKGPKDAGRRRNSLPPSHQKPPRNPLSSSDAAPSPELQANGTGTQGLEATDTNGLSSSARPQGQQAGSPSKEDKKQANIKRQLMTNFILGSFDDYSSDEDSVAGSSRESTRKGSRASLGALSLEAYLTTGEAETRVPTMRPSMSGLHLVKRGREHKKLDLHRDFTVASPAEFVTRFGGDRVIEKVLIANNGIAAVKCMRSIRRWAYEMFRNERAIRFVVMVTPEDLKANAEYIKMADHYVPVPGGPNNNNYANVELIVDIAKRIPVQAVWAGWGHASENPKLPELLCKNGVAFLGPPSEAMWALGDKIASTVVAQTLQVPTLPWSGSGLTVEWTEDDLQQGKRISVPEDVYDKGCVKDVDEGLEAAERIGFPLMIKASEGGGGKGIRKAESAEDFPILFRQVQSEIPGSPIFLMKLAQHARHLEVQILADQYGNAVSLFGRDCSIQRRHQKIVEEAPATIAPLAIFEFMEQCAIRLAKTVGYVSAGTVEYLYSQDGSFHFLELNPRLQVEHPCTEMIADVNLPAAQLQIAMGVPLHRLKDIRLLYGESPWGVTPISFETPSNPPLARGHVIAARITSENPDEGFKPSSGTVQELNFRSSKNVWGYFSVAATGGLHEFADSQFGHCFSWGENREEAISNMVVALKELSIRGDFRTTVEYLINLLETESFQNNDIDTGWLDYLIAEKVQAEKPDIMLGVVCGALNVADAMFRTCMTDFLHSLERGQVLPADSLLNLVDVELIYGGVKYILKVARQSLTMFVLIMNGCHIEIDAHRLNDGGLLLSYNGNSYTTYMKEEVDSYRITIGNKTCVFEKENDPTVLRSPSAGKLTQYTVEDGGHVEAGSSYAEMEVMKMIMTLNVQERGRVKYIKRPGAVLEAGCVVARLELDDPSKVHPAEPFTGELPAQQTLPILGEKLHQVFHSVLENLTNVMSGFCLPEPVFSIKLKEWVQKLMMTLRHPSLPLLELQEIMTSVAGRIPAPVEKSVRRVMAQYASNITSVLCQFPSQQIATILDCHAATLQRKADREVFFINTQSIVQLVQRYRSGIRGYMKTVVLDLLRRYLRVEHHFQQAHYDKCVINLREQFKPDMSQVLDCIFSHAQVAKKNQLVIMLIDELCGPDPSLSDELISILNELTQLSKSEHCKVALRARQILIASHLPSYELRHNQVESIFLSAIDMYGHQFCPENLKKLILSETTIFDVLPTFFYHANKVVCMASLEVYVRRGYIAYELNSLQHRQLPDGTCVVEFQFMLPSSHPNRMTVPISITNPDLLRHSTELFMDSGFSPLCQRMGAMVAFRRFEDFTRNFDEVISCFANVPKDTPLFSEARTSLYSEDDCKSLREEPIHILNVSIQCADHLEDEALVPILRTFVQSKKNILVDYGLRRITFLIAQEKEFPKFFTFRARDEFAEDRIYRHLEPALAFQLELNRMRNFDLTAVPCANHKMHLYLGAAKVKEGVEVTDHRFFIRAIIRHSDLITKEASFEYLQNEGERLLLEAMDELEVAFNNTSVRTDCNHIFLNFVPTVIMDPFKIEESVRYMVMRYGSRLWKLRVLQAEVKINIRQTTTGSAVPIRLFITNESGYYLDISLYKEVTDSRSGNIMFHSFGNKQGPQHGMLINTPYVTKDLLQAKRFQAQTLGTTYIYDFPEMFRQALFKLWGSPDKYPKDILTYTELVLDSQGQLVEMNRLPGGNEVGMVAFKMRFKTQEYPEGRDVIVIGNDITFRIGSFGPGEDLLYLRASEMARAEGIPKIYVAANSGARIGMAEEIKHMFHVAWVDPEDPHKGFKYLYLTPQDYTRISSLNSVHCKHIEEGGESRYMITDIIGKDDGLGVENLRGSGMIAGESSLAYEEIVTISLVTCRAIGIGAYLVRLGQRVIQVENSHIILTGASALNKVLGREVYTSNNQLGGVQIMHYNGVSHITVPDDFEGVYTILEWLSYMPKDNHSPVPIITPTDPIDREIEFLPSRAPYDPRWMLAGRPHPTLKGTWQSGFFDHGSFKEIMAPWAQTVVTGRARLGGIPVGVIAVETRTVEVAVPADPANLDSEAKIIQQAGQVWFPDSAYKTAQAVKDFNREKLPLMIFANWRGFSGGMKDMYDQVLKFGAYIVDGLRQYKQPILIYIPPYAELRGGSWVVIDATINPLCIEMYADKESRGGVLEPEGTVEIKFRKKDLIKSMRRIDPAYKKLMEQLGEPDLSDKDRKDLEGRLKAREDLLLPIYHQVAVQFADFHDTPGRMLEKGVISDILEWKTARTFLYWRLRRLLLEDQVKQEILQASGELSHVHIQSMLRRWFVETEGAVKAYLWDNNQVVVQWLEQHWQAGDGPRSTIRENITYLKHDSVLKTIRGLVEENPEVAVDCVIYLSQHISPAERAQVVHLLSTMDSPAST
Sequence of fungal (fACC2) (Q00955 whole entry): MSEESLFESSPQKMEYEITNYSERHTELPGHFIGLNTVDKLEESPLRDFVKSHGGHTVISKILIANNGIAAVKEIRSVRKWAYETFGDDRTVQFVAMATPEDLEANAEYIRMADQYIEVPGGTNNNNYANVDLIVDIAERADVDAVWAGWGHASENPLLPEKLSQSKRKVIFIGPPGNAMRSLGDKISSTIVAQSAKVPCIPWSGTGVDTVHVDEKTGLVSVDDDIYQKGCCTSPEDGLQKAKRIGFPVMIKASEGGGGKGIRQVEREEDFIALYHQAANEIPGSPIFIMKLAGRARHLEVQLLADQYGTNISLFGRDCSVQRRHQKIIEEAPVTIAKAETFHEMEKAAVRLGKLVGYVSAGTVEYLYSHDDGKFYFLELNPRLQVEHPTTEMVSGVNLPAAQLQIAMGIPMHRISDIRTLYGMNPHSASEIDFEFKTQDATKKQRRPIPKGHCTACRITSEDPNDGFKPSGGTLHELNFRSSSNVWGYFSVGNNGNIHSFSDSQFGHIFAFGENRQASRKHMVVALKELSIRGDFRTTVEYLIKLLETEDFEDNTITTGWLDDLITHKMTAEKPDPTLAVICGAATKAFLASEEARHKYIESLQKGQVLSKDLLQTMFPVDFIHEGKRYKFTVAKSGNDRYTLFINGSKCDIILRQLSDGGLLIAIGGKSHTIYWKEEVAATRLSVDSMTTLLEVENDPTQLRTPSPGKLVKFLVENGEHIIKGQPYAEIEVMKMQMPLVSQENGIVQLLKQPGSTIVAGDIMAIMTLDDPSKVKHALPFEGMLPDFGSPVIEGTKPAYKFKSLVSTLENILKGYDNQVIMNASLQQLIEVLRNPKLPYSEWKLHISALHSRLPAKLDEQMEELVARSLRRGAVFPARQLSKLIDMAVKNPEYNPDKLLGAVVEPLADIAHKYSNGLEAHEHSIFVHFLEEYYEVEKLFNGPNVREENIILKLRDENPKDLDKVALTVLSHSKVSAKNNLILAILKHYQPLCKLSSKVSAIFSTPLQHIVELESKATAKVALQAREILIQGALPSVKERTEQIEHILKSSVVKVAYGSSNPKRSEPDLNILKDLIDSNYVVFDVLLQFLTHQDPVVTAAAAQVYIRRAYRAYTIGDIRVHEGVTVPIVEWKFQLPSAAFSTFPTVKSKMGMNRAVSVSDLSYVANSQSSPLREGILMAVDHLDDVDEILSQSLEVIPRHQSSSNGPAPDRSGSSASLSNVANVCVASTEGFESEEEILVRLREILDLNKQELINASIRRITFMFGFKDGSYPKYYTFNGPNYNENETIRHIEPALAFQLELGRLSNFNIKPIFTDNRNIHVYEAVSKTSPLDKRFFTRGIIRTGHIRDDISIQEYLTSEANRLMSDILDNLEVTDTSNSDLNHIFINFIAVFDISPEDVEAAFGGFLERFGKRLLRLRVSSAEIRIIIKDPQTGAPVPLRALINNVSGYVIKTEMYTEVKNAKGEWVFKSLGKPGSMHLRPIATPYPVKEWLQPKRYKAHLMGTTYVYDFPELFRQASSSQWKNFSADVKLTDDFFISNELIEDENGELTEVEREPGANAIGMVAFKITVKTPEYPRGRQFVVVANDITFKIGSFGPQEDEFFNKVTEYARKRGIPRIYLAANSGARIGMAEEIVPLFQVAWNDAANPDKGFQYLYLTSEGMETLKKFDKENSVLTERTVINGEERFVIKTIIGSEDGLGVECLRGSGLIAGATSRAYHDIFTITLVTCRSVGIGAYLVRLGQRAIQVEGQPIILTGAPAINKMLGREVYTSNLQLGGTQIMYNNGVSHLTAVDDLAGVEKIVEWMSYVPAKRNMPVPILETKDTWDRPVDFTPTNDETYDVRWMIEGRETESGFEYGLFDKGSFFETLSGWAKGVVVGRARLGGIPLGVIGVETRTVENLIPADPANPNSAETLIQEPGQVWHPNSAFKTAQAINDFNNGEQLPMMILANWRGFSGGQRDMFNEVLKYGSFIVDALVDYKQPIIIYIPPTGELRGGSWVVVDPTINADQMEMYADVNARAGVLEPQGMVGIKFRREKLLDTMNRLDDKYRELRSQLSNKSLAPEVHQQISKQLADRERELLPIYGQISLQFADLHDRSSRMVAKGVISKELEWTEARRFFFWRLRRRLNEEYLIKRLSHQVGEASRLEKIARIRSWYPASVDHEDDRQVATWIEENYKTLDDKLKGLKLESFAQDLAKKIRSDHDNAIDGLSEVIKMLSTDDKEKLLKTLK

| Compound | IC90 (Rhizoctonia solani (Rs); [1]) [µg/mL] | IC90 (Rhizoctonia solani (Rs); [2]) [µg/mL] | IC50 (human (hACC2); Table 2a) [nM] | IC50 (human (hACC2); Table 2b, additional results) [nM] | IC90 (Rhizoctonia solani (Rs); [3]) [µg/mL] | IC90 (Rhizoctonia solani (Rs); [4]) [µg/mL] | MIC (C. albicans) [µg/mL] | MIC (C. parapsilosis) [µg/mL] | IC50 (fungal (fACC2)) [nM] | MIC (C. krusei) [µg/mL] |
| --- | --- | --- | --- | --- | --- | --- | --- | --- | --- | --- |
| COc1ccc(F)cc1[C@H](Cn1c(=O)n(C(C)(C)C(=O)NC(C)C)c(=O)c2c(C)c(-n3nccn3)sc21)OCC(C)C [Compound I-10, (R)-2-(1-(2-(5-fluoro-2-methoxyphenyl)-2-isobutoxyethyl)-5-methyl-2,4-dioxo-6-(2H-1,2,3-triazol-2-yl)-1,4-dihydrothieno[2,3-d]pyrimidin-3(2H)-yl)-N-isopropyl-2-methylpropanamide] | 0.4 (≈ 0.666 µM) | 0.4 (≈ 0.666 µM) | 10 to 40 | 10 to 40 |  |  |  |  |  |  |
| COc1ccccc1[C@H](Cn1c(=O)n(C(C)(C)C(=O)NCC(C)C)c(=O)c2c(C)c(-n3nccn3)sc21)OC1CCOCC1 [Compound I-13, (R)—N-isobutyl-2-(1-(2-(2-methoxyphenyl)-2-((tetrahydro-2H-pyran-4-yl)oxy)ethyl)-5-methyl-2,4-dioxo-6-(2H-1,2,3-triazol-2-yl)-1,4-dihydrothieno[2,3-d]pyrimidin-3(2H)-yl)-2-methylpropanamide] |  |  | 5 to 10 | 5 to 10 | 0.08 (≈ 0.128 µM) | 0.08 (≈ 0.128 µM) |  |  |  |  |
| COc1ccccc1[C@H](Cn1c(=O)n(C(C)(C)C(=O)NC(C)C)c(=O)c2c(C)c(-n3nccn3)sc21)OC1CCOCC1 [Compound I-16, (R)—N-isopropyl-2-(1-(2-(2-methoxyphenyl)-2-((tetrahydro-2H-pyran-4-yl)oxy)ethyl)-5-methyl-2,4-dioxo-6-(2H-1,2,3-triazol-2-yl)-1,4-dihydrothieno[2,3-d]pyrimidin-3(2H)-yl)-2-methylpropanamide] | 0.4 (≈ 0.655 µM) | 0.4 (≈ 0.655 µM) | 5 to 10 | 5 to 10 |  |  |  |  |  |  |
| COc1ccccc1[C@H](Cn1c(=O)n(C(C)(C)C(=O)N2CCCCC2)c(=O)c2c(C)c(-n3nccn3)sc21)OC1CCOCC1 [Compound I-17, (R)-1-(2-(2-methoxyphenyl)-2-((tetrahydro-2H-pyran-4-yl)oxy)ethyl)-5-methyl-3-(2-methyl-1-oxo-1-(piperidin-1-yl)propan-2-yl)-6-(2H-1,2,3-triazol-2-yl)thieno[2,3-d]pyrimidine-2,4(1H,3H)-dione] | 0.08 (≈ 0.126 µM) | 0.08 (≈ 0.126 µM) | 5 to 10 | 5 to 10 |  |  |  |  |  |  |
| COc1ccccc1[C@H](Cn1c(=O)n(C(C)(C)C(=O)N2CCCC2)c(=O)c2c(C)c(-n3nccn3)sc21)OC1CCOCC1 [Compound I-18, (R)-1-(2-(2-methoxyphenyl)-2-((tetrahydro-2H-pyran-4-yl)oxy)ethyl)-5-methyl-3-(2-methyl-1-oxo-1-(pyrrolidin-1-yl)propan-2-yl)-6-(2H-1,2,3-triazol-2-yl)thieno[2,3-d]pyrimidine-2,4(1H,3H)-dione] |  |  | 5 to 10 | 5 to 10 | 0.08 (≈ 0.128 µM) | 0.08 (≈ 0.128 µM) |  |  |  |  |
| COc1ccccc1[C@H](Cn1c(=O)n(C(C)(C)C(=O)NC2CCC2)c(=O)c2c(C)c(-n3nccn3)sc21)OC1CCOCC1 [Compound I-20, (R)—N-cyclobutyl-2-(1-(2-(2-methoxyphenyl)-2-((tetrahydro-2H-pyran-4-yl)oxy)ethyl)-5-methyl-2,4-dioxo-6-(2H-1,2,3-triazol-2-yl)-1,4-dihydrothieno[2,3-d]pyrimidin-3(2H)-yl)-2-methylpropanamide] |  |  | 5 to 10 | 5 to 10 | 0.08 (≈ 0.128 µM) | 0.08 (≈ 0.128 µM) |  |  |  |  |
| COc1ccccc1[C@H](Cn1c(=O)n(C(C)(C)C(=O)NC2CCCCC2)c(=O)c2c(C)c(-n3nccn3)sc21)OC1CCOCC1 [Compound I-21, (R)—N-cyclohexyl-2-(1-(2-(2-methoxyphenyl)-2-((tetra-hydro-2H-pyran-4-yl)oxy)ethyl)-5-methyl-2,4-dioxo-6-(2H-1,2,3-triazol-2-yl)-1,4-dihydrothieno[2,3-d]pyrimidin-3(2H)-yl)-2-methylpropanamide] | 0.4 (≈ 0.615 µM) | 0.4 (≈ 0.615 µM) | 5 to 10 | 5 to 10 |  |  |  |  |  |  |
| CCNC(=O)C(C)(C)n1c(=O)c2c(C)c(-n3nccn3)sc2n(C[C@H](OC2CCOCC2)c2cc(F)ccc2OC)c1=O [Compound I-22, (R)—N-ethyl-2-(1-(2-(5-fluoro-2-methoxyphenyl)-2-((tetrahydro-2H-pyran-4-yl)oxy)ethyl)-5-methyl-2,4-dioxo-6-(2H-1,2,3-triazol-2-yl)-1,4-dihydrothieno[2,3-d]pyrimidin-3(2H)-yl)-2-methylpropanamide] |  |  | 5 to 10 | 5 to 10 | 0.4 (≈ 0.651 µM) | 0.4 (≈ 0.651 µM) |  |  |  |  |
| COc1ccc(F)cc1[C@H](Cn1c(=O)n(C(C)(C)C(=O)NC(C)C)c(=O)c2c(C)c(-n3nccn3)sc21)OC1CCOCC1 [Compound I-23, (R)-2-(1-(2-(5-fluoro-2-methoxyphenyl)-2-((tetrahydro-2H-pyran-4-yl)oxy)ethyl)-5-methyl-2,4-dioxo-6-(2H-1,2,3-triazol-2-yl)-1,4-dihydro-thieno[2,3-d]pyrimidin-3(2H)-yl)-N-isopropyl-2-methylpropanamide] | 0.08 (≈ 0.127 µM) | 0.08 (≈ 0.127 µM) | 5 to 10 | 5 to 10 |  |  |  |  |  |  |
| COc1ccc(F)cc1[C@H](Cn1c(=O)n(C(C)(C)C(=O)N2CCCC2)c(=O)c2c(C)c(-n3nccn3)sc21)OC1CCOCC1 [Compound I-25] |  |  | 5 to 10 | 5 to 10 | 0.08 (≈ 0.125 µM) | 0.08 (≈ 0.125 µM) |  |  |  |  |
| COc1ccc(F)cc1[C@H](Cn1c(=O)n(CC(=O)N2CCCC2)c(=O)c2c(C)c(-n3nccn3)sc21)OC(C)C [Compound I-36, (R)-1-(2-(5-fluoro-2-methoxyphenyl)-2-isopropoxyethyl)-5-methyl-3-(2-oxo-2-(pyrrolidin-1-yl)ethyl)-6-(2H-1,2,3-triazol-2-yl)thieno[2,3-d]pyrimidine-2,4(1H,3H)-dione] |  |  | 1 to 5 | 1 to 5 | 0.4 (≈ 0.701 µM) | 0.4 (≈ 0.701 µM) |  |  |  |  |
| COc1ccc(F)cc1[C@H](Cn1c(=O)n([C@@H](C)C(=O)NC(C)C)c(=O)c2c(C)c(-n3nccn3)sc21)OC(C)C [Compound I-37, (S)-2-(1-((R)-2-(5-fluoro-2-methoxyphenyl)-2-isopropoxyethyl)-5-methyl-2,4-dioxo-6-(2H-1,2,3-triazol-2-yl)-1,4-dihydrothieno[2,3-d]pyrimidin-3(2H)-yl)-N-isopropylpropanamide] | 0.4 (≈ 0.698 µM) | 0.4 (≈ 0.698 µM) | 5 to 10 | 5 to 10 |  |  |  |  |  |  |
| COc1ccc(F)cc1[C@H](Cn1c(=O)n([C@H](C)C(=O)NC(C)C)c(=O)c2c(C)c(-n3nccn3)sc21)OC(C)C [Compound I-38, (R)-2-(1-((R)-2-(5-fluoro-2-methoxyphenyl)-2-isopropoxy-ethyl)-5-methyl-2,4-dioxo-6-(2H-1,2,3-triazol-2-yl)-1,4-dihydrothieno[2,3-d]pyrimidin-3(2H)-yl)-N-isopropylpropanamide] | 0.4 (≈ 0.698 µM) | 0.4 (≈ 0.698 µM) | 5 to 10 | 5 to 10 |  |  |  |  |  |  |
| COc1ccc(F)cc1[C@H](Cn1c(=O)n(C(C)(C)C(=O)NC(C)C)c(=O)c2c(C)c(-n3nccn3)sc21)OC[C@H](C)C(=O)O [Compound I-273] |  |  |  | > 40 |  |  | 0.25 to 1 (≈ 0.396 to 1.59 µM) | 1.01 to 2 (≈ 1.6 to 3.17 µM) | 0.3 to 1 | 0.25 to 1 (≈ 0.396 to 1.59 µM) |
| COc1ccc(F)cc1[C@H](Cn1c(=O)n(C(C)(C)C(=O)NC(C)C)c(=O)c2c(C)c(-n3nccn3)sc21)OC[C@@H](C)C(=O)O [Compound I-274] |  |  |  | > 40 |  |  | 0.25 to 1 (≈ 0.396 to 1.59 µM) | 1.01 to 2 (≈ 1.6 to 3.17 µM) | 0.3 to 1 | 0.25 to 1 (≈ 0.396 to 1.59 µM) |

Reference: patent publication US10800791B2, “Triazole ACC inhibitors and uses thereof” (Gilead Apollo, LLC, priority 2015, dated 2020)
